Values joined by “and” are separate entries in the source; they are usually repeats but may differ in a detail not shown here. Identical values can stand only once.
Columns and labels:
[1] = 10 mg of dezocine, postoperative patients (n=187); cited from earlier work
[2] = cited from earlier work
[3] = molecular target: recombinant human kappa opioid receptor (Homo sapiens, UniProt P41145); assay: biochemical; conditions: IC50 of inhibition of agonist-induced G protein activation
recombinant human kappa opioid receptor, sequence (P41145 whole entry): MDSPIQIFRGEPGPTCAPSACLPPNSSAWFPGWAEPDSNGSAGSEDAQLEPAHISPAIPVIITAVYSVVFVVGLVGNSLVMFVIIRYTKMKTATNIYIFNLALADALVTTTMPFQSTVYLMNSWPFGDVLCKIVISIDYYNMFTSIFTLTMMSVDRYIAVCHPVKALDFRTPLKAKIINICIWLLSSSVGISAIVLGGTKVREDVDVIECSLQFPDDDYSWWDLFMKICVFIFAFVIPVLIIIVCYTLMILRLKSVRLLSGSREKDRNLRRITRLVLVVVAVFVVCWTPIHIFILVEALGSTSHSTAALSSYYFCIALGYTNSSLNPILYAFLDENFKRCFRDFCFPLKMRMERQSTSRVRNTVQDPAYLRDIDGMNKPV

In the case of C[C@@]12CCCCC[C@@H](Cc3ccc(O)cc31)[C@@H]2N [dezocine], the “analgesic activity compared with meperidine” value [1] is given as “same analgesic activity as 50 mg of meperidine”, the “decrease of anesthetic requirement” value [2] is given as “up to 50%” and the IC50 [3] is given as ~350 nM and ~800 nM.

From paper PMC3944410 (Anesthesiology, 2014)
